Measured values reported in US8791258B2, “Pro-fluorescent probes” (The Regents of the University of California, priority 2008, dated 2014).

Experiments:
[1] = Fluorescence response to H2O2 in 20 mM HEPES, pH 7
Protocol: (§1) Millipore water was used to prepare all aqueous solutions. All spectroscopic measurements were performed in 20 mM HEPES buffer, pH 7. Absorption spectra were recorded using a Varian Cary 50 spectrophotometer (Walnut Creek, Calif.). Fluorescence spectra were recorded using a Photon Technology International Quanta Master 4 L-format scanning spectrofluorometer (Lawrenceville, N.J.) equipped with an LPS-220B 75-W xenon lamp and power supply, A-1010B lamp housing with integrated igniter, switchable 814 photon-counting/analog photomultiplier detection unit, and MD5020 motor driver. Samples for absorption and fluorescence measurements were contained in 1-cm×1-cm quartz cuvettes (1.4- or 3.5-mL volume, Starna, Atascadero, Calif.).
The Peroxysensor reagents were evaluated under simulated physiological conditions (20 mM HEPES buffer, pH 7). […] FIG. 4, FIG. 5 and FIG. 6 show the fluorescence responses of PF1, PR1, and PX1, respectively, to H2O2.

[2] = Absorption and emission properties, fluorescence quantum yield; assay type: physicochemical; details: absorption maximum 350 nm; 20 mM HEPES, pH 7
Protocol: as §1
as §1, with “recorded on” for “recorded using”, “Creek, Calif.) and fluorescence” for “Creek, Calif.). Fluorescence”, “and emission” for “and fluorescence”, “cuvettes (1.5-mL” for “cuvettes (1.4- or 3.5-mL”, “Calif.). Fluorescence quantum yields were determined by reference to fluorescein in 0.1M NaOH (Φ=0.95).” for “Calif.).”

HEK cells = test: Confocal and two-photon fluorescence imaging of H2O2 in live HEK cells; details: for intracellular background fluorescence of probe-loaded cells before H2O2: 5-10 μM probe, 2-10 min at 25° C.; for intracellular fluorescence after addition of H2O2: probe-loaded cells, 10-100 μM H2O2
Protocol: (a) Fluorescence image of HEK cells incubated with 5 μM PF1 for 5 min at 25° C. (b) Fluorescence image of PF1-stained HEK cells treated with 100 μM H2O2 for 11 min at 25° C. Excitation was provided at 488 nm, and emission was collected in a window from 505 to 580 nm. Scale bar=27 μm.
(a) Fluorescence image of HEK cells incubated with 10 μM PR1 for 10 min at 25° C. (b) Fluorescence image of PR1-stained HEK cells treated with 100 μM H2O2 for 30 min at 25° C. Excitation was provided at 543 nm, and emission was collected in a window from 548 to 644 nm. Scale bar=18 μm.
(a) Fluorescence image of HEK cells incubated with 10 μM PX1 for 2-3 min at 25° C. (b) Fluorescence image of PX1-stained HEK cells treated with 100 μM H2O2 for 30 min at 25° C. Two-photon excitation was provided at 704 nm, and emission was collected in a window from 420 to 500 nm. Scale bar=18 μm.
HEK 293T cells were cultured in Dulbecco's Modified Eagle Medium (DMEM, Invitrogen, Carlsbad, Calif.) supplemented with 10% Fetal Bovine Serum (FBS, Invitrogen), glutamine (2 mM), and penicillin/streptomycin (50 μg/ml, Invitrogen). One day before imaging, cells were passed and plated on 18-mm glass coverslips coated with poly-L-lysine (50 μg/ml, Sigma, St. Louis, Mo.). Immediately before the experiments, cells were washed with PBS buffer, incubated with the probe in PBS, and imaged.
Confocal fluorescence imaging was performed with a Zeiss LSM510 META laser scanning microscope containing an Axioplan 2 MOT upright microscope and a 40× water-immersion objective lens. Excitation of PF1-loaded cells at 488 nm was carried out with an argon ion laser, and emission was Collected in a window from 505 nm to 580 nm using a META detection system. Excitation of PR1-loaded cells at 543 nm was carried out with a HeNe laser, and emission was collected in a window from 548 nm to 644 nm using a META detector. PF1 or PR1 were incubated with live cell samples for 5 to 10 min. Addition of H2O2 (10 to 100 μM) to cell samples was performed directly on the microscope stage by bath application to the media.
Two-photon fluorescence imaging of PX1 was carried out using an inverted Zeiss LSM510 Axiovert 200M microscope with a NeoFLUAR 40×/1.3 NA oil-immersion objective lens. Samples were excited by 704-nm pulses from a mode-locked Ti:Sapphire laser (Tsunami, SpectraPhysics, 120-150 fs pulse width, 80 MHz repetition rate). The emission light was filtered with a 80-nm wide bandpass filter centered at 460 nm (460BP40, Chroma) and detected with the non-descanned detector (NDD) of the LSM510.

[3] = Fluorescence response to various ROS (H2O2 selectivity); details: 100 μM ROS, 20 mM HEPES, pH 7, 25° C.
Protocol: (§2) FIG. 7 is the fluorescence response of 5 μM PF1 to various ROS (10 mM O2^−, 100 μM for all other ROS). .OH and .Ot-Bu were generated by reaction of Fe^2+ with H2O2 or tert-butyl hydroperoxide (TBHP), respectively. NO was delivered using S-nitrosocysteine (SNOC). Spectra were acquired in 20 mM HEPES, pH 7, and all data were obtained after incubation with the appropriate ROS at 25° C. for 1 h. Collected emission was integrated between 460 and 700 nm (λexc=450 nm).
FIG. 8 is the fluorescence response of 5 μM PR1 to various ROS (10 mM O2^−, 100 μM for all other ROS). .OH and .O^tBu were generated by reaction of Fe^2+ with H2O2 or tert-butyl hydroperoxide (TBHP), respectively. NO was delivered using S-nitrosocysteine (SNOC). Spectra were acquired in 20 mM HEPES, pH 7, and all data were obtained after incubation with the appropriate ROS at 25° C. for 30 min. Collected emission was integrated between 570 and 800 nm (λexc=560 nm).
as §2, with “FIG. 9” for “FIG. 7”, “of 10” for “of 5”, “μM PX1” for “μM PF1”, “between 370” for “between 460”, “and 600” for “and 700”, “nm (λexc=350” for “nm (λexc=450”
as §1
FIG. 7, FIG. 8 and FIG. 9 compare the relative reactivities of boronate-based PF1, PR1, and PX1, respectively, toward various ROS.

[4] = test system: embryonic rat hippocampal neurons (E18); test: Fluorescence imaging of H2O2 in cultured hippocampal neurons; assay type: cell-based
Protocol: Hippocampal primary cultures were prepared from embryonic day 18 (E18) rat embryos according to a previously reported protocol. Briefly, hippocampi were dissociated by treatment with trypsin for 20 min at 37° C. followed by washing. The neuronal cells were plated on glass coverslips (Carolina Biological, Burlington, N.C.) coated with poly-L-lysine ([…], Sigma) and cultured in neurobasal medium supplemented with 2 mM Glutamax and 2% B-27 (Invitrogen). After 10 days in vitro, the cultures were washed with PBS, incubated with the probe in PBS, and imaged.
Finally, the successful use of the Peroxysensor probes for monitoring changes in intracellular H2O2 concentrations in mammalian cell lines using either confocal or two-photon microscopy led us to evaluate their utility in primary culture systems. […] Control neurons without PF1 and/or H2O2 treatment show no detectable fluorescence enhancements. These experiments confirm that PF1 can be used in living neurons to detect oxidative stress events.

CC1(C)OB(c2ccc3c(=O)c4ccc(B5OC(C)(C)C(C)(C)O5)cc4oc3c2)OC1(C)C [PX1, 3,6-Bis(pinacolatoboron)xanthone]
increase in integrated fluorescence intensity / integrated emission on reaction with H2O2 (dynamic range) [1]: 52 fold
extinction coefficient ε at 350 nm [2]: 4700 M⁻¹ cm⁻¹
intracellular background fluorescence of probe-loaded cells before H2O2 (HEK cells): minimal intracellular background fluorescence
intracellular fluorescence after addition of H2O2 (HEK cells): Prompt increases in intracellular blue fluorescence
higher response for H2O2 over NO ([3]; NO delivered using SNOC): ca. 6 fold
higher response for H2O2 over tert-butyl hydroperoxide (TBHP) [3]: > 100 fold

CC1(C)OB(c2ccc3c(c2)Oc2cc(B4OC(C)(C)C(C)(C)O4)ccc2C32OC(=O)c3ccccc32)OC1(C)C [PF1, 3′,6″-Bis(pinacolatoboron)fluoran]
background fluorescence of probe-loaded neurons ([4]; 10 μM probe, 5 min at 25° C.): negligible background fluorescence
intracellular fluorescence under simulated oxidative stress ([4]; 300 μM H2O2 for 30 min at 25° C.): notable increases in intracellular fluorescence
cell viability during imaging (HEK cells): cells are viable throughout the imaging experiments
membrane permeability / cell entry (HEK cells): can passively enter live cells
intracellular background fluorescence of probe-loaded cells before H2O2 (HEK cells): negligible intracellular background fluorescence
intracellular fluorescence after addition of H2O2 (HEK cells): prompt increases in intracellular green fluorescence
higher response for H2O2 over .OH ([3]; .OH from Fe2+ with H2O2): > 3 fold
higher response for H2O2 over .OtBu ([3]; .OtBu from Fe2+ with TBHP): > 15 fold
